Values of other authors in US20020090388A1, “Intravascular drug delivery device and use therefor” (priority 2000, published 2002).

Test system: primary pulmonary hypertension
Details: patients with primary pulmonary hypertension

SMILES: CC#CCC(C)[C@H](O)/C=C/[C@@H]1[C@H]2C/C(=C/CCCC(=O)O)C[C@H]2C[C@H]1O (stereo partly shown) [Iloprost]
- mean level of dose required to provide significant therapeutic benefits: 2.1 ng/kg/min
